Experimental findings from ChEMBL document CHEMBL1150976, “The selectivity of protein kinase inhibitors: a further update” (Biochem J, 2007) are described below.

Test [1] has as its target Myosin light chain kinase, smooth muscle (Homo sapiens, UniProt Q15746). As to the kind of experiment: Percentage SmMLCK activity remaining in the presence of 0.1uM inhibitor.
Test [2] has as its target Mitogen-activated protein kinase 14 (Homo sapiens, UniProt Q16539). As to the kind of experiment: Percentage p38alpha activity remaining in the presence of 0.1uM inhibitor.
Test [3] deals with T1, Serine/threonine-protein kinase D1 (Homo sapiens) (UniProt Q15139).
T1 sequence (whole entry): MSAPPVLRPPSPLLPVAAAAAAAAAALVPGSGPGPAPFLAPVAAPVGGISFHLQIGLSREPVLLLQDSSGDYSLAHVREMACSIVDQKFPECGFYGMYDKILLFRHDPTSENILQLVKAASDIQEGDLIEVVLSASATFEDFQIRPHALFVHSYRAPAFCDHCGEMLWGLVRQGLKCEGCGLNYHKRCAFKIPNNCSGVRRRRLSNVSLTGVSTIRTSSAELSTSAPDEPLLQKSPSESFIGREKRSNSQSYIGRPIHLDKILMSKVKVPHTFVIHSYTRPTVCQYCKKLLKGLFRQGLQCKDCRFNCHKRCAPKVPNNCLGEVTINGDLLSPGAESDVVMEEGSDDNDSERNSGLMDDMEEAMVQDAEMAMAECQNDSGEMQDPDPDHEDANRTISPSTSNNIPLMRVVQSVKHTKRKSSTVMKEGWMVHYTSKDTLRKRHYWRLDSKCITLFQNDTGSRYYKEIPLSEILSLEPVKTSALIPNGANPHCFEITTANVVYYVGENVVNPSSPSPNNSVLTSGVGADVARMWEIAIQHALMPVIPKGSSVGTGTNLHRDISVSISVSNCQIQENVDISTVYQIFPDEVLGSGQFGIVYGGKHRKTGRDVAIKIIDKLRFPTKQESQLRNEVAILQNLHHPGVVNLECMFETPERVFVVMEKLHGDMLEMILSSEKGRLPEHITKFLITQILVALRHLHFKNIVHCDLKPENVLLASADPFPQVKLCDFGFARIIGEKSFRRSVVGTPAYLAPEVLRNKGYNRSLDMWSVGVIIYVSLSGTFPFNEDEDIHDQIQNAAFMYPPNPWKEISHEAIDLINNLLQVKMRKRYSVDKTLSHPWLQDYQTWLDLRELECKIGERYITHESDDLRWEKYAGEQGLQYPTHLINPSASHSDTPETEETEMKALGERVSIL
As to the kind of experiment: Percentage PKD1 activity remaining in the presence of 0.1uM inhibitor.

For the next test, the species on record is Homo sapiens. As to the kind of experiment: Percentage PHK activity remaining in the presence of 0.1uM inhibitor.
Test [4] deals with Homeodomain-interacting protein kinase 2 (Homo sapiens) (UniProt Q9H2X6). As to the kind of experiment: Percentage HIPK2 activity remaining in the presence of 0.1uM inhibitor.
Sequence of Homeodomain-interacting protein kinase 2 (Homo sapiens) (Q9H2X6 whole entry, looked up): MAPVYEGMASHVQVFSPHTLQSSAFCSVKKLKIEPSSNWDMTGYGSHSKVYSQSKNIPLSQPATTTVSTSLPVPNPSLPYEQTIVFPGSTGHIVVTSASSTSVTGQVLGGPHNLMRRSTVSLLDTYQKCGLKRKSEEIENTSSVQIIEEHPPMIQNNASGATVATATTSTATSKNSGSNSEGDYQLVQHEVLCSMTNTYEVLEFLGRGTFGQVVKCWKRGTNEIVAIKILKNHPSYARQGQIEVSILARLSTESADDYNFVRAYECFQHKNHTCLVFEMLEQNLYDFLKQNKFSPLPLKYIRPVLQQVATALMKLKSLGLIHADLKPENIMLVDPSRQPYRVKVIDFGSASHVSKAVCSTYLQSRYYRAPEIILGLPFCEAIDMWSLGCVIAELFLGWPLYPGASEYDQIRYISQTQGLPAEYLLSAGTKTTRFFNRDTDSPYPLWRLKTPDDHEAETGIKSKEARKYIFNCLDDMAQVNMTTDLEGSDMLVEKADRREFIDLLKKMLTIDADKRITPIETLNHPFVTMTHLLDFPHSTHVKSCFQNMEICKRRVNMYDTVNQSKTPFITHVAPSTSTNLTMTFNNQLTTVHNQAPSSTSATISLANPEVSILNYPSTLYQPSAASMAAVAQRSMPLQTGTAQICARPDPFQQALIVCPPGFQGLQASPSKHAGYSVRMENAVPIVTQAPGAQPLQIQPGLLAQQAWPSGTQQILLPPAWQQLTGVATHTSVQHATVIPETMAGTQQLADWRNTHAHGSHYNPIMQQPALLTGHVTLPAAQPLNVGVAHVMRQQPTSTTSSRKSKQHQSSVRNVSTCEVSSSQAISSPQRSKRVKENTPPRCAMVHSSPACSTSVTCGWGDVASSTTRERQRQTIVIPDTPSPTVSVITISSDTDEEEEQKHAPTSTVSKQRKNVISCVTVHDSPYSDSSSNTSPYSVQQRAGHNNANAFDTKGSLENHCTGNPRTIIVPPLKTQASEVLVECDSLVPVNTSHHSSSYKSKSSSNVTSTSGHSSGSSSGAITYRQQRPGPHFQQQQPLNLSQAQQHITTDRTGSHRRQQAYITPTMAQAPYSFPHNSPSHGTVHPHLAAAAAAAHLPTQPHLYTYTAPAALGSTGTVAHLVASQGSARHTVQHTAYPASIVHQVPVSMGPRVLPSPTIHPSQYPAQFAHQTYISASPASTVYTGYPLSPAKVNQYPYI
The target in test [5] is Maternal embryonic leucine zipper kinase (Homo sapiens) (UniProt Q14680). As to the kind of experiment: Percentage MELK activity remaining in the presence of 0.1uM inhibitor.
Sequence of Maternal embryonic leucine zipper kinase (Homo sapiens) (Q14680 whole entry, looked up): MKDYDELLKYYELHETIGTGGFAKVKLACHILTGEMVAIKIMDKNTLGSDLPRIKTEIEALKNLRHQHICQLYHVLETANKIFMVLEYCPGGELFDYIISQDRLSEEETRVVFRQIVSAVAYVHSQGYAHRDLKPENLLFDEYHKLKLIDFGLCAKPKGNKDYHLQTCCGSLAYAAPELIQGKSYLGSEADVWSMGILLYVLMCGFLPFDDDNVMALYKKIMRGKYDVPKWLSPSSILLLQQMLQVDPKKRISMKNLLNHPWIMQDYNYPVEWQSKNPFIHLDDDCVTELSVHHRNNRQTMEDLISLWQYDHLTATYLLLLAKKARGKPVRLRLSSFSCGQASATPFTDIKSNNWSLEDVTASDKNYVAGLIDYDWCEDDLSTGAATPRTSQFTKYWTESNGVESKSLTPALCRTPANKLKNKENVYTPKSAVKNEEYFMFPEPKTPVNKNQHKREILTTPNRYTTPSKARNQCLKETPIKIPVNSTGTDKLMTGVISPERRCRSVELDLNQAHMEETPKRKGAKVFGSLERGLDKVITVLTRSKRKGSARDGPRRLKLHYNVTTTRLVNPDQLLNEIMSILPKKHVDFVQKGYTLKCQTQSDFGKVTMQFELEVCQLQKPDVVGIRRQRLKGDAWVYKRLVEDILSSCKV
The species named for another test is Rattus norvegicus. As to the kind of experiment: Percentage AMPK activity remaining in the presence of 0.1uM inhibitor.
Test [6] has as its target MAP kinase-activated protein kinase 2 (Homo sapiens) (UniProt P49137). The test is described as follows: Percentage MAPKAPK2 activity remaining in the presence of 0.1uM inhibitor.
Test [7] addresses Protein kinase C alpha type (Homo sapiens) (UniProt P17252). As to the kind of experiment: Percentage PKCalpha activity remaining in the presence of 0.1uM inhibitor.
Test [8] concerns the target T2, Serine/threonine-protein kinase Chk1 (Homo sapiens) (UniProt O14757).
T2 sequence (whole entry): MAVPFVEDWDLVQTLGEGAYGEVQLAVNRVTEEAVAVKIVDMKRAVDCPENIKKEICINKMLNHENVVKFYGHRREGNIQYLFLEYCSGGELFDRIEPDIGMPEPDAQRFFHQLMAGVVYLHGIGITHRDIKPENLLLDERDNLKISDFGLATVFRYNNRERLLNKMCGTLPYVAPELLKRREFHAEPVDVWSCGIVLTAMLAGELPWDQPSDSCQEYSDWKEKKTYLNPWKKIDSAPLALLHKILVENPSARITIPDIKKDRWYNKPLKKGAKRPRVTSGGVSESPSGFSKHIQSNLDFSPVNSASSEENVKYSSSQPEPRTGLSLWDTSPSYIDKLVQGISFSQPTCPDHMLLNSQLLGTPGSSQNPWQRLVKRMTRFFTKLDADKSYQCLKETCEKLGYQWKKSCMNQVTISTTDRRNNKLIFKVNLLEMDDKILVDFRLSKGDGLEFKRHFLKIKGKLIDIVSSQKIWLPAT
As to the kind of experiment: Percentage CHK1 activity remaining in the presence of 0.1uM inhibitor.

Test [9] deals with Dual specificity tyrosine-phosphorylation-regulated kinase 1A (Homo sapiens) (UniProt Q13627). The test is described as follows: Percentage DYRK1A activity remaining in the presence of 0.1uM inhibitor.
Test [10] has as its target Serine/threonine-protein kinase pim-3 (Homo sapiens, UniProt Q86V86). As to the kind of experiment: Percentage PIM3 activity remaining in the presence of 0.1uM inhibitor.
The target of test [11] is MAP kinase-interacting serine/threonine-protein kinase 2 (Homo sapiens) (UniProt Q9HBH9). As to the kind of experiment: Percentage MNK2 activity remaining in the presence of 0.1uM inhibitor.
For test [12], the target named is Ribosomal protein S6 kinase alpha-1 (Homo sapiens) (UniProt Q15418). As to the kind of experiment: Percentage RSK1 activity remaining in the presence of 0.1uM inhibitor.
Test [13] has as its target Serine/threonine-protein kinase PLK1 (Homo sapiens, UniProt P53350). As to the kind of experiment: Percentage PLK1 activity remaining in the presence of 0.1uM inhibitor.
Test [14] addresses Mitogen-activated protein kinase 9 (Homo sapiens, UniProt P45984). The test is described as follows: Percentage JNK2 activity remaining in the presence of 0.1uM inhibitor.
The target in test [15] is Mitogen-activated protein kinase 8 (Homo sapiens, UniProt P45983). The test is described as follows: Percentage JNK1 activity remaining in the presence of 0.1uM inhibitor.
Test [16] deals with Calcium/calmodulin-dependent protein kinase kinase 2 (Homo sapiens) (UniProt Q96RR4). The test is described as follows: Percentage CaMKKbeta activity remaining in the presence of 0.1uM inhibitor.
Test [17] has as its target Cyclin-dependent kinase 2/cyclin A (Homo sapiens) (UniProt P24941+P20248+P78396). As to the kind of experiment: Percentage CDK2-cyclinA activity remaining in the presence of 0.1uM inhibitor. The class given is protein-complex assay.

Sequence of Serine/threonine-protein kinase PLK1 (P53350 whole entry): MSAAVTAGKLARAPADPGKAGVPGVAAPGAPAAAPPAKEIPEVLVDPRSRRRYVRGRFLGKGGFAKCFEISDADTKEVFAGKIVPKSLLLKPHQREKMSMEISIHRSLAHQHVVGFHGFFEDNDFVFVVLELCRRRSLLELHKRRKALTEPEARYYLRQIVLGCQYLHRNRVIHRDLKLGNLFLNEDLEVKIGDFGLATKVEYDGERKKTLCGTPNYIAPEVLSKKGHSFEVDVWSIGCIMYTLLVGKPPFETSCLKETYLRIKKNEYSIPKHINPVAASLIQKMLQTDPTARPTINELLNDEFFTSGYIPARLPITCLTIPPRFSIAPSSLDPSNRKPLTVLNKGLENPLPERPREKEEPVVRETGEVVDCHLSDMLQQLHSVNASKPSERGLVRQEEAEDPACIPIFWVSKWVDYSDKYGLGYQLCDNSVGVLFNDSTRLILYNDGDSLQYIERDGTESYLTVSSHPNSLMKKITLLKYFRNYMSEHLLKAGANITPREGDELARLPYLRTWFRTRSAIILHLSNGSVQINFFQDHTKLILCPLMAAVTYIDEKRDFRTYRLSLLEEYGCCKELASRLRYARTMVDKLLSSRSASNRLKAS
Sequence of Myosin light chain kinase, smooth muscle (Q15746 whole entry): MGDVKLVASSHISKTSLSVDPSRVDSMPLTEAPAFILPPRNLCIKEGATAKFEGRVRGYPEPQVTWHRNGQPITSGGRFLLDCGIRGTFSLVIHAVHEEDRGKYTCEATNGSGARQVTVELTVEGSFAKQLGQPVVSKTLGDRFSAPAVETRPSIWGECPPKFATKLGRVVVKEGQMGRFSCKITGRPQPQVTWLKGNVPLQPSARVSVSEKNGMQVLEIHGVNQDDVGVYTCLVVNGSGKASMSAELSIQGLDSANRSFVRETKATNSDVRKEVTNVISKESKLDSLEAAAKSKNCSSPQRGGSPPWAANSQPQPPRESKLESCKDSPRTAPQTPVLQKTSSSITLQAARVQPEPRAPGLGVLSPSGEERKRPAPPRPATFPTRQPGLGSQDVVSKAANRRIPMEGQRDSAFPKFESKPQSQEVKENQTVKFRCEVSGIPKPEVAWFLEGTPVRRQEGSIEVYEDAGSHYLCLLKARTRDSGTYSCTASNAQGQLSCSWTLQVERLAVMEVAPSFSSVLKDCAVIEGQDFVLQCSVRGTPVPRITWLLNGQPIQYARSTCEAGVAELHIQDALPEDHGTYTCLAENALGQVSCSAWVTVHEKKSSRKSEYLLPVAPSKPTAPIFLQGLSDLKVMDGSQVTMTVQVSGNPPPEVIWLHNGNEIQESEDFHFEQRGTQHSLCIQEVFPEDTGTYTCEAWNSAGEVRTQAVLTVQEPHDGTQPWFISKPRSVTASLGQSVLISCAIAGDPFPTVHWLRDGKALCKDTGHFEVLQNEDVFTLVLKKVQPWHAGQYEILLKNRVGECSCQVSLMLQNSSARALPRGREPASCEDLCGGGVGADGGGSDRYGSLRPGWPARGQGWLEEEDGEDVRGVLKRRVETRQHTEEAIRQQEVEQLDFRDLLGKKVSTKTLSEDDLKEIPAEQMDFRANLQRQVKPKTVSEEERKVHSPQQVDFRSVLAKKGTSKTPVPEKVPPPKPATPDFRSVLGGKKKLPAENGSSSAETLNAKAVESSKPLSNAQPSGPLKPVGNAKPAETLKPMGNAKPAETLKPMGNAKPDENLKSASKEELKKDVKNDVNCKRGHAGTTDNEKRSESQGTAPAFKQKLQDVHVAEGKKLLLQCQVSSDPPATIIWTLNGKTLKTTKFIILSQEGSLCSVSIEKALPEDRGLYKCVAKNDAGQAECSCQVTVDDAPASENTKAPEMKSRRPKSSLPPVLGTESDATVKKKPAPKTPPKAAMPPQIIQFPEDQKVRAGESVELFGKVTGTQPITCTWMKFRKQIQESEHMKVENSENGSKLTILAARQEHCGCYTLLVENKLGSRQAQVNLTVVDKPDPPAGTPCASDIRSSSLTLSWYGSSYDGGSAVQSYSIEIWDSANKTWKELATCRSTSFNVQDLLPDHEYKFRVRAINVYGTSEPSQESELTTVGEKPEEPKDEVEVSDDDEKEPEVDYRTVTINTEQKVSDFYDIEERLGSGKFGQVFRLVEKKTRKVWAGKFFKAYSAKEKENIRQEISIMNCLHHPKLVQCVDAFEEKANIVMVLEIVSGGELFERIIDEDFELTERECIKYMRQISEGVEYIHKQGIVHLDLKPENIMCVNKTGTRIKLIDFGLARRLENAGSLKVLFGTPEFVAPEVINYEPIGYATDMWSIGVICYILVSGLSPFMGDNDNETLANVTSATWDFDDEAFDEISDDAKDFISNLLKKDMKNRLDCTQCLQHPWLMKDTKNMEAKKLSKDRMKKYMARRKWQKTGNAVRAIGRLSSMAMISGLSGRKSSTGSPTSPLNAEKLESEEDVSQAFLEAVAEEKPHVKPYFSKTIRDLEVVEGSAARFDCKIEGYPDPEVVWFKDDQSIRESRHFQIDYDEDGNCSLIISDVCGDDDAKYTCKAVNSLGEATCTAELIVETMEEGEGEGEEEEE

In the case of `Cc1n[nH]c2ccc(-c3cncc(OC[C@@H](N)Cc4c[nH]c5ccccc45)c3)cc12`, the Activity in [1] (filed as antagonist) is 27%; in test [2] it was 92%; in test [3] (filed as antagonist) it was 23%; in the test listed under Homo sapiens, 54%; in test [4] (filed as antagonist) it was 24%; in [5], 63%. Moreover, the Activity in the test listed under Rattus norvegicus is 67%; in [6], 73%; in test [7] (filed as antagonist), 29%; in test [8], 99%; in [9] (filed as antagonist), 7%; in test [10] (filed as antagonist) it was 13%. The Activity in test [11] was 80%; in test [12] (filed as antagonist) it was 32%; in test [13], 80%; in test [14], 78%; in [15], 90%.
Take `O=C(NCCCNc1nc(Nc2cccc(NC(=O)N3CCCC3)c2)ncc1I)c1cccs1`: the Activity was 95% in test [1]; 87% in test [2]; 38% in test [3] (filed as antagonist); 62% in the test filed under Homo sapiens; 101% in [4]; 32% in [5] (filed as antagonist). Further, the Activity is 11% in the test filed under Rattus norvegicus (filed as antagonist); 108% in [6]; 74% in test [7]; 46% in test [8] (filed as antagonist); 30% in [16] (filed as antagonist); 83% in test [9]. Further, the Activity in test [10] is 63%; in test [17] (filed as antagonist) it was 10%; in test [11] (filed as antagonist) it was 19%; in test [12] it was 55%; in test [13] it was 92%; in test [14] it was 70%. In addition, the Activity in test [15] is 85%.
As for `CN(C)C[C@@H]1CCn2cc(c3ccccc32)C2=C(C(=O)NC2=O)c2cn(c3ccccc23)CCO1`, the Activity is 66% in test [1]; 49% in the test filed under Homo sapiens (filed as antagonist); 63% in [4]; 71% in the test filed under Rattus norvegicus; 114% in [6]; 71% in test [8]. The Activity in test [16] is 53%; in [9], 74%; in test [10] (filed as antagonist), 5%; in test [17], 68%; in test [11], 101%; in [12] (filed as antagonist), 10%. The values for the Activity in test [13], in test [14] and in test [15] were 85%, 99% and 87%, respectively.
On to `Cn1c2ccccc2c2c3c(c4c5ccccc5n(CCC#N)c4c21)CNC3=O`, for which the Activity in test [1] (filed as antagonist) was 40%; in [2] it was 100%; in test [3] (filed as antagonist) it was 5%; in the test filed under Homo sapiens (filed as antagonist), 1%; in test [4] it was 63%; in test [5] (filed as antagonist) it was 15%. The Activity in [6] was 118%; in test [7] (filed as antagonist), 2%; in [8] (filed as antagonist), 1%; in test [16] (filed as antagonist), 11%; in [9] (filed as antagonist), 30%; in [10] (filed as antagonist), 7%. For the same compound, the Activity in [17] (filed as antagonist) is 8%; in test [11] (filed as antagonist), 30%; in test [12] (filed as antagonist), 6%; in test [13] it was 80%; in [14], 68%; in [15], 69%.
As to `CC(C)[C@H](CO)Nc1nc(Nc2cccc(Cl)c2)c2ncn(C(C)C)c2n1` [PURVALANOLA], the Activity in test [1] came out at 86%; in test [2] it was 95%; in test [3] it was 85%; in the test filed under Homo sapiens it was 85%; in test [5] it was 72%; in the test listed under Rattus norvegicus, 89%. The Activity in [6] was found to be 106%; in test [7], 77%; in test [8], 95%; in test [16], 60%; in test [9] it was 88%; in test [10], 91%. The Activity is 9% in test [17] (filed as antagonist); 98% in [11]; 74% in test [12]; 81% in test [13]; 96% in test [14]; 100% in test [15].
In the case of `Cn1cc(C2=C(c3cn(CCCSC(=N)N)c4ccccc34)C(=O)NC2=O)c2ccccc21`, the Activity in [1] is 63%; in test [2], 102%; in [3] it was 66%; in the test listed under Homo sapiens (filed as antagonist) it was 46%; in [4], 88%; in [5] it was 61%. The Activity in the test filed under Rattus norvegicus is 84%; in test [6] it was 90%; in test [7] (filed as antagonist), 3%; in [8] it was 59%; in test [16] it was 65%; in test [9] (filed as antagonist), 31%. Besides, the Activity in test [10] (filed as antagonist) is 16%; in test [17] (filed as antagonist), 3%; in test [11] it was 103%; in [12] (filed as antagonist), 11%; in test [13], 82%; in test [14] it was 92%. In test [15], the Activity turned out to be 93%.
On to `CC(C)CCN1c2nc(Nc3cc(F)c(O)c(F)c3)ncc2N(C)C(=O)C1C` (stereo not given), for which the Activity is 107% in [1]; 88% in test [2]; 63% in test [3]; 114% in the test listed under Homo sapiens; 103% in [4]; 40% in test [5] (filed as antagonist). Also, the Activity in the test filed under Rattus norvegicus is 108%; in test [6] it was 89%; in [7] it was 90%; in [8], 73%; in [16] it was 73%; in test [9] it was 96%. In addition, the Activity was 65% in test [10]; 84% in [17]; 96% in [11]; 1% in test [12] (filed as antagonist); 5% in test [13] (filed as antagonist); 115% in [14]. In test [15], the Activity amounted to 88%.
